# Measured values published in patent US20260337225A1, “SMALL PEPTIDE AND USE THEREOF IN MUCOSAL REPAIR” (FORREST BIO-PHARM (SHENZHEN) CO., LTD., priority 2022, published 2026).
# Tested on: rat model of chronic gastric ulcer
# Assay: Rat model of chronic gastric ulcer (anhydrous ethanol followed by aspirin)
# Assay type: in vivo
# Details: omeprazole 2.6 mg/kg twice daily for 3 days
# Method: The function of the small peptides obtained in Embodiment 2 was validated in the present embodiment by using a rat model of chronic gastric ulcer.
# Control group (model group): A rat model of chronic gastric ulcer model was constructed by intragastric administration of anhydrous ethanol (1 mL/200 g), followed by intragastric administration of 200 mg/kg aspirin 2 h later. The rats were administered with aspirin once daily for 4 days. At day 5, the rats were administered with an equal volume of saline.
# Blank group: The rats were administered with an equal volume of saline.
# Drug treatment groups: A rat model of chronic gastric ulcer was constructed as above-mentioned. At day 5, the rats were respectively administered with the rice polypeptide mixture (50 mg/kg), small peptide P1 (0.5 mg/kg), or small peptide P2 (0.5 mg/kg) twice daily for 3 days. On day 4, the rats were sacrificed and their gastric necropsy was performed.
# Positive control group (omeprazole 2.6 mg/kg): A rat model of chronic gastric ulcer was constructed as above. At day 5, the rats were administered with omeprazole (2.6 mg/kg) twice daily for 3 days. On day 4, The rats were sacrificed and their gastric necropsy was performed.
# Each group consisted of 10 rats. After 24 h of modeling, the rats were sacrificed to extract the gastric tissue, for measuring gastric pH, and observing changes in ulcer area via gastric tissue dissection. Liver and kidney tissues were collected for pathological section observation to assess drug safety.
structure (smiles),measurement,setting,value
"COc1ccc2[nH]c([S+]([O-])Cc3ncc(C)c(OC)c3C)nc2c1 (centres unmarked) [omeprazole, reference compound]",Ulcer index,"10 rats, ratio of ulcer area to gastric mucosal tissue area, Control group 40.5 ± 5.3",7.2 ± 4.1%
same,Ulcer inhibition rate,percentage reduction in ulcer area compared to the Control group,82.2%
